The structures appear in SMILES notation.

The record followed here is article PMC5218480 (PLoS ONE, 2017).

The assay relates to MV-4-11 cells. Nature of the assay: Gene expression microarray analysis (Affymetrix PrimeView) and GSEA. To be noted: ProbeSet 11732165_x_at; LIST D. Also noted: RFU PODN (11730768_x_at) / Fold change /veh PODN (11730768_x_at) / RFU LINC00158 (11744669_a_at) / Fold change /veh LINC00158 (11744669_a_at) / RFU DUSP10 (11751237_a_at) / Fold change /veh DUSP10 (11751237_a_at) / RFU ID3 (11757404_x_at) / Fold change /veh ID3 (11757404_x_at) / RFU PLEKHG5 (11737974_s_at) / Fold change /veh PLEKHG5 (11737974_s_at) / RFU LRRC4B (11730491_at) / Fold change /veh LRRC4B (11730491_at) / RFU GIMAP4 (11747438_a_at) / Fold change /veh GIMAP4 (11747438_a_at) / RFU KRT8 (11758183_x_at) / Fold change /veh KRT8 (11758183_x_at) / RFU CNN1 (11734310_a_at) / Fold change /veh CNN1 (11734310_a_at) / RFU VPS37D (11726825_at) / Fold change /veh VPS37D (11726825_at) / RFU C10orf10 (11716522_x_at) / Fold change /veh C10orf10 (11716522_x_at) / RFU KIR2DL2 /// KIR2DL4 /// KIR2DL5A /// KIR2DL5B /// KIR2DS1 /// KIR2DS2 /// KIR2DS3 /// KIR2DS4 /// KIR3DL3 /// KIR3DL3 /// KIR3DS1 (11738374_at) / Fold change /veh KIR2DL2 /// KIR2DL4 /// KIR2DL5A /// KIR2DL5B /// KIR2DS1 /// KIR2DS2 /// KIR2DS3 /// KIR2DS4 /// KIR3DL3 /// KIR3DL3 /// KIR3DS1 (11738374_at) / RFU C1QL1 (11718748_at) / Fold change /veh C1QL1 (11718748_at) / RFU TMPRSS4 (11747572_a_at) / Fold change /veh TMPRSS4 (11747572_a_at) / RFU HAMP (11756126_x_at) / Fold change /veh HAMP (11756126_x_at) / RFU RNFT2 (11725882_a_at) / Fold change /veh RNFT2 (11725882_a_at) / RFU NR4A2 (11747474_a_at) / Fold change /veh NR4A2 (11747474_a_at) / RFU ABCC12 (11746883_a_at) / Fold change /veh ABCC12 (11746883_a_at) / RFU TMEM136 (11760407_x_at) / Fold change /veh TMEM136 (11760407_x_at) / RFU CLDN22 /// WWC2 (11732394_at) / Fold change /veh CLDN22 /// WWC2 (11732394_at) / RFU HLA-DPB1 (11760878_x_at) / Fold change /veh HLA-DPB1 (11760878_x_at) / RFU SPINT1 (11716480_a_at) / Fold change /veh SPINT1 (11716480_a_at) / RFU GAP43 (11754022_s_at) / Fold change /veh GAP43 (11754022_s_at) / RFU A4GNT (11735810_at) / Fold change /veh A4GNT (11735810_at) / RFU PRB3 (11715151_x_at) / Fold change /veh PRB3 (11715151_x_at) / RFU TUBB4B (11761932_at) / Fold change /veh TUBB4B (11761932_at) / RFU CAPN14 (11732068_a_at) / Fold change /veh CAPN14 (11732068_a_at) / RFU TMCC2 (11721928_a_at) / Fold change /veh TMCC2 (11721928_a_at) / RFU IRGQ (11745062_a_at) / Fold change /veh IRGQ (11745062_a_at) / RFU FAM174B (11720279_a_at) / Fold change /veh FAM174B (11720279_a_at) / RFU TMPRSS4 (11748680_a_at) / Fold change /veh TMPRSS4 (11748680_a_at) / RFU FAM212B (11763350_a_at) / Fold change /veh FAM212B (11763350_a_at) / RFU PLEKHG5 (11743358_a_at) / Fold change /veh PLEKHG5 (11743358_a_at) / RFU ZSCAN30 (11745921_a_at) / Fold change /veh ZSCAN30 (11745921_a_at) / RFU CMKLR1 (11741424_a_at) / Fold change /veh CMKLR1 (11741424_a_at) / RFU LOC101060620 /// MAPK8IP1 (11723275_at) / Fold change /veh LOC101060620 /// MAPK8IP1 (11723275_at) / RFU SPTSSB (11747773_x_at) / Fold change /veh SPTSSB (11747773_x_at) / RFU PRSS12 (11739890_at) / Fold change /veh PRSS12 (11739890_at) / RFU BIN1 (11741810_x_at) / Fold change /veh BIN1 (11741810_x_at) / RFU WNT11 (11732464_a_at) / Fold change /veh WNT11 (11732464_a_at) / RFU C10orf10 (11716521_a_at) / Fold change /veh C10orf10 (11716521_a_at) / RFU C5orf56 (11738089_at) / Fold change /veh C5orf56 (11738089_at) / RFU CYB561 (11721691_x_at) / Fold change /veh CYB561 (11721691_x_at) / RFU ANKRD19P (11752326_a_at) / Fold change /veh ANKRD19P (11752326_a_at) / RFU OR2T12 /// OR2T33 /// OR2T8 (11738714_s_at) / Fold change /veh OR2T12 /// OR2T33 /// OR2T8 (11738714_s_at) / RFU VCAN (11748164_a_at) / Fold change /veh VCAN (11748164_a_at) / RFU JSRP1 (11732532_at) / Fold change /veh JSRP1 (11732532_at) / RFU KRTAP10-11 (11738290_x_at) / Fold change /veh KRTAP10-11 (11738290_x_at) / RFU MYO3A (11730013_a_at) / Fold change /veh MYO3A (11730013_a_at) / RFU EBF3 (11725865_a_at) / Fold change /veh EBF3 (11725865_a_at) / RFU CAMK2N1 (11719241_x_at) / Fold change /veh CAMK2N1 (11719241_x_at) / RFU C5orf56 (11738088_a_at) / Fold change /veh C5orf56 (11738088_a_at) / RFU OLFML3 (11715873_a_at) / Fold change /veh OLFML3 (11715873_a_at) / RFU LOC100653217 /// NTM (11731650_a_at) / Fold change /veh LOC100653217 /// NTM (11731650_a_at) / RFU MAPK11 (11762145_a_at) / Fold change /veh MAPK11 (11762145_a_at) / RFU FIZ1 (11724087_x_at) / Fold change /veh FIZ1 (11724087_x_at) / RFU OASL (11726364_x_at) / Fold change /veh OASL (11726364_x_at) / RFU SOX15 (11748057_x_at) / Fold change /veh SOX15 (11748057_x_at) / RFU CD79A (11719716_a_at) / Fold change /veh CD79A (11719716_a_at) / RFU HIST1H1D (11736915_at) / Fold change /veh HIST1H1D (11736915_at) / RFU CASKIN2 (11723855_a_at) / Fold change /veh CASKIN2 (11723855_a_at) / RFU LOC730098 (11760151_x_at) / Fold change /veh LOC730098 (11760151_x_at) / RFU OR4N2 (11742367_at) / Fold change /veh OR4N2 (11742367_at) / RFU PRRT2 (11749266_a_at) / Fold change /veh PRRT2 (11749266_a_at) / RFU SNX32 (11753110_a_at) / Fold change /veh SNX32 (11753110_a_at) / RFU CDHR5 (11726645_a_at) / Fold change /veh CDHR5 (11726645_a_at) / RFU RCAN1 (11760418_a_at) / Fold change /veh RCAN1 (11760418_a_at) / RFU FAM167A (11723789_a_at) / Fold change /veh FAM167A (11723789_a_at) / RFU FAM26E (11764081_at) / Fold change /veh FAM26E (11764081_at) / RFU ISYNA1 (11749810_s_at) / Fold change /veh ISYNA1 (11749810_s_at) / RFU ACY1 (11761880_at) / Fold change /veh ACY1 (11761880_at) / RFU 11764098_at / Fold change /veh 11764098_at / RFU SAMD14 (11745864_x_at) / Fold change /veh SAMD14 (11745864_x_at) / RFU NPB (11741838_a_at) / Fold change /veh NPB (11741838_a_at) / RFU TMPRSS6 (11731388_a_at) / Fold change /veh TMPRSS6 (11731388_a_at) / RFU KRTAP10-2 (11738614_at) / Fold change /veh KRTAP10-2 (11738614_at) / RFU ARHGAP8 /// PRR5-ARHGAP8 (11727945_x_at) / Fold change /veh ARHGAP8 /// PRR5-ARHGAP8 (11727945_x_at) / RFU KRTAP5-7 /// NADSYN1 (11734609_at) / Fold change /veh KRTAP5-7 /// NADSYN1 (11734609_at) / RFU RASL12 (11751679_a_at) / Fold change /veh RASL12 (11751679_a_at) / RFU CDKN2B (11736163_a_at) / Fold change /veh CDKN2B (11736163_a_at) / RFU PRF1 (11729649_at) / Fold change /veh PRF1 (11729649_at) / RFU, ZNF638 /// ZNF638-IT1 / Fold change vs veh, ZNF638 /// ZNF638-IT1 / RFU, PANK3 / Fold change vs veh, PANK3 / RFU, SH3YL1 / Fold change vs veh, SH3YL1 / RFU, ZEB2 / Fold change vs veh, ZEB2 / RFU, NRIP1 / Fold change vs veh, NRIP1 / RFU, PTTG1IP / Fold change vs veh, PTTG1IP / RFU, CAPN2 / Fold change vs veh, CAPN2 / RFU, MED14 / Fold change vs veh, MED14 / RFU, SNORA58 / Fold change vs veh, SNORA58 / RFU, C1orf63 / Fold change vs veh, C1orf63 / RFU, LRRFIP1 / Fold change vs veh, LRRFIP1 / RFU, NDUFAF7 / Fold change vs veh, NDUFAF7 / RFU, SLC12A2 / Fold change vs veh, SLC12A2 / RFU, IBTK / Fold change vs veh, IBTK / RFU, ESF1 / Fold change vs veh, ESF1 / Fold change vs veh, TMEM50B / RFU, TAOK1 / Fold change vs veh, TAOK1 / RFU, ACBD3 / Fold change vs veh, ACBD3 / RFU, TMA16 / Fold change vs veh, TMA16 / RFU, RWDD3 / Fold change vs veh, RWDD3 / RFU, BCAT1 / Fold change vs veh, BCAT1 / RFU, EDEM3 / Fold change vs veh, EDEM3 / RFU, TMEM33 / Fold change vs veh, TMEM33 / RFU, WDR75 / Fold change vs veh, WDR75 / RFU, AHCTF1 / Fold change vs veh, AHCTF1 / RFU, TFRC / Fold change vs veh, TFRC / RFU, ZDHHC17 / Fold change vs veh, ZDHHC17 / RFU, NOM1 / Fold change vs veh, NOM1 / RFU, ARL8B / Fold change vs veh, ARL8B / RFU, ZBTB11 / Fold change vs veh, ZBTB11 / RFU, TAMM41 / Fold change vs veh, TAMM41 / RFU, KIAA1704 /// LOC100996395 / Fold change vs veh, KIAA1704 /// LOC100996395 / RFU, ING1 / Fold change vs veh, ING1 / RFU, TRMT61B / Fold change vs veh, TRMT61B / RFU, FUBP3 / Fold change vs veh, FUBP3 / RFU, TP53 / Fold change vs veh, TP53 / RFU, TNKS2 / Fold change vs veh, TNKS2 / RFU, ZFP14 / Fold change vs veh, ZFP14 / RFU, ACTR2 / Fold change vs veh, ACTR2 / RFU, PPP3R1 / Fold change vs veh, PPP3R1 / RFU, PIK3R1 / Fold change vs veh, PIK3R1 / RFU, HNRNPA1 / Fold change vs veh, HNRNPA1 / RFU, RNF170 / Fold change vs veh, RNF170 / RFU, ZNF28 / Fold change vs veh, ZNF28 / RFU, RNGTT / Fold change vs veh, RNGTT / RFU, OGT / Fold change vs veh, OGT / RFU, BRD1 / Fold change vs veh, BRD1 / RFU, MARS / Fold change vs veh, MARS / RFU, ZNF655 / Fold change vs veh, ZNF655 / RFU, FAHD1 / Fold change vs veh, FAHD1 / RFU, BDP1 / Fold change vs veh, BDP1 / RFU, LRRCC1 / Fold change vs veh, LRRCC1 / RFU, ARID1A / Fold change vs veh, ARID1A / RFU, ZNF146 / Fold change vs veh, ZNF146 / RFU, ZNF330 / Fold change vs veh, ZNF330 / RFU, GPN3 / Fold change vs veh, GPN3 / RFU, C9orf123 / Fold change vs veh, C9orf123 / RFU, N4BP2L2 / Fold change vs veh, N4BP2L2 / RFU, ARFIP1 / Fold change vs veh, ARFIP1 / RFU, FAM179B / Fold change vs veh, FAM179B / RFU, BCL10 / Fold change vs veh, BCL10 / RFU, UHRF1BP1L / Fold change vs veh, UHRF1BP1L / RFU, BET1 / Fold change vs veh, BET1 / RFU, CNOT2 / Fold change vs veh, CNOT2 / RFU, ZNF268 / Fold change vs veh, ZNF268 / Fold change vs veh, ZNF507 / RFU, DGCR2 / Fold change vs veh, DGCR2 / RFU, WDSUB1 / Fold change vs veh, WDSUB1 / Fold change vs veh, HSP90B1 /// MIR3652 / RFU, ADSS / Fold change vs veh, ADSS / RFU, GK / Fold change vs veh, GK / RFU, ZNF148 / Fold change vs veh, ZNF148 / RFU, TAF9 / Fold change vs veh, TAF9 / RFU, SLC1A5 / Fold change vs veh, SLC1A5 / RFU, SLMO2 / Fold change vs veh, SLMO2 / RFU, ABCC4 / Fold change vs veh, ABCC4 / RFU, LOC101060439 /// RAP1B / Fold change vs veh, LOC101060439 /// RAP1B / RFU, RFX7 / Fold change vs veh, RFX7 / RFU, GTPBP10 / Fold change vs veh, GTPBP10 / RFU, CNEP1R1 / Fold change vs veh, CNEP1R1 / RFU, BIVM-ERCC5 /// ERCC5 / Fold change vs veh, BIVM-ERCC5 /// ERCC5 / RFU, ILF3 / Fold change vs veh, ILF3 / RFU 11762660_at / Fold change /veh 11762660_at / RFU VCAN (11757783_s_at) / Fold change /veh VCAN (11757783_s_at) / RFU DDX43 (11728927_at) / Fold change /veh DDX43 (11728927_at) / RFU KRT8 (11758188_x_at) / Fold change /veh KRT8 (11758188_x_at) / RFU NKD1 (11759106_at) / Fold change /veh NKD1 (11759106_at) / RFU SRD5A1 (11742802_a_at) / Fold change /veh SRD5A1 (11742802_a_at) / RFU TPSAB1 /// TPSB2 (11721975_s_at) / Fold change /veh TPSAB1 /// TPSB2 (11721975_s_at) / RFU GSTM3 (11746129_a_at) / Fold change /veh GSTM3 (11746129_a_at) / RFU IL23R (11737362_x_at) / Fold change /veh IL23R (11737362_x_at) / RFU TMEM51 (11727254_a_at) / Fold change /veh TMEM51 (11727254_a_at) / RFU PIWIL2 (11732686_x_at) / Fold change /veh PIWIL2 (11732686_x_at) / RFU ORM1 (11744905_x_at) / Fold change /veh ORM1 (11744905_x_at) / RFU CCDC152 (11743942_at) / Fold change /veh CCDC152 (11743942_at) / RFU ECM1 (11717891_a_at) / Fold change /veh ECM1 (11717891_a_at) / RFU IL23R (11748794_a_at) / Fold change /veh IL23R (11748794_a_at) / RFU TNFAIP8L3 (11732012_x_at) / Fold change /veh TNFAIP8L3 (11732012_x_at) / RFU MBOAT4 (11741988_at) / Fold change /veh MBOAT4 (11741988_at) / RFU 11764193_at / Fold change /veh 11764193_at / RFU TMEM53 (11763286_at) / Fold change /veh TMEM53 (11763286_at) / RFU MAGEB2 (11727129_at) / Fold change /veh MAGEB2 (11727129_at) / RFU TMEM200A (11744735_a_at) / Fold change /veh TMEM200A (11744735_a_at) / RFU CCDC152 (11751479_a_at) / Fold change /veh CCDC152 (11751479_a_at) / RFU FAM211A (11726209_a_at) / Fold change /veh FAM211A (11726209_a_at) / RFU RGS16 (11746705_a_at) / Fold change /veh RGS16 (11746705_a_at) / RFU VCAN (11755009_s_at) / Fold change /veh VCAN (11755009_s_at) / RFU RHOB (11743442_s_at) / Fold change /veh RHOB (11743442_s_at) / RFU RGS16 (11720943_a_at) / Fold change /veh RGS16 (11720943_a_at) / RFU RGS16 (11720944_at) / Fold change /veh RGS16 (11720944_at) / RFU, VPS4B / Fold change vs veh, VPS4B / RFU, CREB1 / Fold change vs veh, CREB1 / RFU, DNAJC13 / Fold change vs veh, DNAJC13 / RFU, GNAQ / Fold change vs veh, GNAQ / RFU, CDK5R1 / Fold change vs veh, CDK5R1 / RFU, ZRANB3 / Fold change vs veh, ZRANB3 / RFU, CUL4A / Fold change vs veh, CUL4A / RFU, CCNY / Fold change vs veh, CCNY / RFU, UFL1 / Fold change vs veh, UFL1 / RFU, COG3 / Fold change vs veh, COG3 / RFU, DIAPH2 / Fold change vs veh, DIAPH2 / RFU, SKA2 / Fold change vs veh, SKA2 / RFU, AFF3 / Fold change vs veh, AFF3 / RFU, LMF1 / Fold change vs veh, LMF1 / RFU, IPO11 / Fold change vs veh, IPO11 / RFU, DFFB / Fold change vs veh, DFFB / RFU, FOXP1 / Fold change vs veh, FOXP1 / RFU, CARD8 / Fold change vs veh, CARD8 / RFU, STRN3 / Fold change vs veh, STRN3 / RFU, ADK / Fold change vs veh, ADK / RFU, RASSF2 / Fold change vs veh, RASSF2 / RFU, WIPF1 / Fold change vs veh, WIPF1 / RFU, LARP1B / Fold change vs veh, LARP1B / RFU, RASA1 / Fold change vs veh, RASA1 / RFU, RB1 / Fold change vs veh, RB1 / RFU, PPFIA1 / Fold change vs veh, PPFIA1 / RFU, MAT2A / Fold change vs veh, MAT2A / RFU, CCT5 / Fold change vs veh, CCT5 / RFU, WDR92 / Fold change vs veh, WDR92 / RFU, CUX1 / Fold change vs veh, CUX1 / RFU, TTC7A / Fold change vs veh, TTC7A / RFU, TMEM135 / Fold change vs veh, TMEM135 / RFU, DEPTOR / Fold change vs veh, DEPTOR / RFU, CPM / Fold change vs veh, CPM / RFU, DNAJB6 / Fold change vs veh, DNAJB6 / RFU, CACNA2D3 / Fold change vs veh, CACNA2D3 / RFU, DTX4 / Fold change vs veh, DTX4 / RFU, TFCP2 / Fold change vs veh, TFCP2 / RFU, GMCL1 /// GMCL1P1 / Fold change vs veh, GMCL1 /// GMCL1P1 / RFU, AEBP2 / Fold change vs veh, AEBP2 / RFU, SNHG1 /// SNORD22 /// SNORD25 /// SNORD26 /// SNORD27 /// SNORD28 /// SNORD29 /// SNORD31 / Fold change vs veh, SNHG1 /// SNORD22 /// SNORD25 /// SNORD26 /// SNORD27 /// SNORD28 /// SNORD29 /// SNORD31 / Fold change (Aza/veh), C12orf56 (ProbeSet 11735607_a_at) / Fold change (ACY-1035/veh), C12orf56 (ProbeSet 11735607_a_at) / Fold change (Aza/veh), FGFR1OP (ProbeSet 11751329_s_at) / Fold change (ACY-1035/veh), FGFR1OP (ProbeSet 11751329_s_at) / Fold change (Aza/veh), VPS36 (ProbeSet 11739960_a_at) / Fold change (ACY-1035/veh), VPS36 (ProbeSet 11739960_a_at) / RFU SYPL1 (11715823_x_at) / Fold change /veh SYPL1 (11715823_x_at) / RFU IGFBP7 (11715501_s_at) / Fold change /veh IGFBP7 (11715501_s_at) / RFU REEP3 (11722064_at) / Fold change /veh REEP3 (11722064_at) / RFU IGLL1 (11728026_x_at) / Fold change /veh IGLL1 (11728026_x_at): dose or concentration left out as unconfirmed. In kind it is cell-based, human.

Turning to `Nc1ccc(-c2cccs2)cc1NC(=O)c1ccc2c(c1)cc(C1CC1)n2CCN1CCOCC1` [ACY-1035], the “RFU, LMF1” value is 59.92 RFU.
